From patent publication US20090239845A1, “PYRAZOLE COMPOUNDS AS PROSTAGLANDIN RECEPTORS LIGANDS” (priority 2005, published 2009)
Counter-ions that a name gives are not always drawn.

biological target: T1, human EP1 receptor (Homo sapiens, UniProt P34995); assay: human EP1 calcium mobilisation assay; format: cell-based; settings: negative logarithm10 of the antagonist dissociation constant; CHO-K1 cells, PGE2; free bases or sodium salts; averages of a number of experiments; read-out: functional pKi value (converted)
T1 construct: expressed in transfected cells; host or cells: CHO-K1
T1 sequence (P34995 1-402): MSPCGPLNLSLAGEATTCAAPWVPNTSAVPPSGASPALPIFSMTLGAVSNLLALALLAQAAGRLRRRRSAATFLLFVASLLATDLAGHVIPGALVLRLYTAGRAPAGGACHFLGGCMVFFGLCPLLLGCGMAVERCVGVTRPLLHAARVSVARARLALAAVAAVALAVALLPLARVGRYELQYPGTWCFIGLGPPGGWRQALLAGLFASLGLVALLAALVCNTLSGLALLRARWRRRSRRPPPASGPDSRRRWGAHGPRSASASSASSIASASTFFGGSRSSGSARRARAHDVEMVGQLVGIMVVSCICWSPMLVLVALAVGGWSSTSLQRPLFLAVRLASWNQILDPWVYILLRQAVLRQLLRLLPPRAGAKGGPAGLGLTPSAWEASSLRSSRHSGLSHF
Method: Briefly, the antagonist properties of compounds are assessed by their ability to inhibit the mobilisation of intracellular calcium ([Ca^2+]i) in response to activation of EP1 or EP3 receptors by the natural agonist hormone prostaglandin E2 (PGE2). Increasing concentrations of antagonist reduce the amount of calcium that a given concentration of PGE2 can mobilise. The net effect is to displace the PGE2 concentration-effect curve to higher concentrations of PGE2. The amount of calcium produced is assessed using a calcium-sensitive fluorescent dye such as Fluo-4, AM and a suitable instrument such as a Fluorimetric Imaging Plate Reader (FLIPR). Increasing amounts of [Ca^2+]i produced by receptor activation increase the amount of fluorescence produced by the dye and give rise to an increasing signal. The signal may be detected using the FLIPR instrument and the data generated may be analysed with suitable curve-fitting software.
The human EP1 or EP3 calcium mobilisation assay (hereafter referred to as ‘the calcium assay’) utilises Chinese hamster ovary-K1 (CHO-K1) cells into which a stable (pCIN; BioTechniques 20 (1996): 102-110) vector containing either EP1 or EP3 cDNA has previously been transfected. Cells are cultured in suitable flasks containing culture medium such as DMEM:F-12 supplemented with 10% v/v foetal calf serum, 2 mM L-glutamine, 0.25 mg/ml geneticin, 100 μM flurbiprofen and 10 μg/ml puromycin.
For assay, cells are harvested using a proprietary reagent that dislodges cells such as Versene. Cells are re-suspended in a suitable quantity of fresh culture media for introduction into a 384-well plate. Following incubation for 24 hours at 37° C. the culture media is replaced with a medium containing Fluo-4 and the detergent pluronic acid, and a further incubation takes place. Concentrations of compounds are then added to the plate in order to construct concentration-effect curves. This may be performed on the FLIPR in order to assess the agonist properties of the compounds. Concentrations of PGE2 are then added to the plate in order to assess the antagonist properties of the compounds.
The data so generated may be analysed by means of a computerised curve-fitting routine. The concentration of compound that elicits a half-maximal inhibition of the calcium mobilisation induced by PGE2 (plC50) may then be estimated.

| Ki | Structure (SMILES) |
| --- | --- |
| > 1000 nM | COC(=O)Nc1cc(C)n(Cc2cc(Cl)ccc2OCc2ccccc2)n1 [Example 65, Methyl[1-({5-chloro-2-[(phenylmethyl)oxy]phenyl}methyl)-5-methyl-1H-pyrazol-3-yl]carbamate] |
| > 1000 nM | CCOC(=O)Nc1cc(C)n(Cc2cc(Cl)ccc2OCc2ccccc2)n1 [Example 66, Ethyl [1-({5-chloro-2-[(phenylmethyl)oxy]phenyl}methyl)-5-methyl-1H-pyrazol-3-yl]carbamate] |
| > 1000 nM | Cc1cc(NC(=O)c2ccc3c(c2)CCN(C(=O)OC(C)(C)C)CC3)nn1Cc1cc(Cl)ccc1OCC(C)C [Example 97, 1,1-Dimethylethyl 7-({[1-({5-chloro-2-[(2-methylpropyl)oxy]phenyl}methyl)-5-methyl-1H-pyrazol-3-yl]amino}carbonyl)-1,2,4,5-tetrahydro-3H-3-benzazepine-3-carboxylate] |
| > 1000 nM | Cc1cc(NC(=O)c2ccc3c(c2)CCNCC3)nn1Cc1cc(Cl)ccc1OCC(C)C [Example 98, N-[1-({5-Chloro-2-[(2-methylpropyl)oxy]phenyl}methyl)-5-methyl-1H-pyrazol-3-yl]-2,3,4,5-tetrahydro-1H-3-benzazepine-7-carboxamide hydrochloride] |
| > 1000 nM | CC(=O)Nc1cc(C)n(Cc2cc(Cl)ccc2OCC(C)C)n1 [Example 103, N-[1-({5-Chloro-2-[(2-methylpropyl)oxy]phenyl}methyl)-5-methyl-1H-pyrazol-3-yl]acetamide] |
| > 1000 nM | CC(=O)Nc1cc(C)n(Cc2cc(Cl)ccc2OCc2ccccc2)n1 [Example 104, N-[1-({5-Chloro-2-[(phenylmethyl)oxy]phenyl}methyl)-5-methyl-1H-pyrazol-3-yl]acetamide] |
| > 1000 nM | Cc1cc(NC(=O)Cc2ccccc2)nn1Cc1cc(Cl)ccc1OCc1ccccc1F [Example 120, N-{1-[(5-Chloro-2-{[(2-fluorophenyl)methyl]oxy}phenyl)methyl]-5-methyl-1H-pyrazol-3-yl}-2-phenylacetamide] |
| > 1000 nM | Cc1cc(NC(=O)Cc2ccccc2)nn1Cc1cc(Cl)ccc1OCc1ccc(F)cc1 [Example 121, N-{1-[(5-Chloro-2-{[(4-fluorophenyl)methyl]oxy}phenyl)methyl]-5-methyl-1H-pyrazol-3-yl}-2-phenylacetamide] |
| > 1000 nM | Cc1cc(NC(=O)Cc2ccccc2)nn1Cc1cc(Cl)ccc1OCc1ccc(F)cc1F [Example 122, N-{1-[(5-Chloro-2-{[(2,4-difluorophenyl)methyl]oxy}phenyl)methyl]-5-methyl-1H-pyrazol-3-yl}-2-phenylacetamide] |
| > 1000 nM | Cc1cc(NC(=O)Cc2ccccc2)nn1Cc1cc(Cl)ccc1OCc1ccc(F)c(F)c1F [Example 123, N-{1-[(5-Chloro-2-{[(2,3,4-trifluorophenyl)methyl]oxy}phenyl)methyl]-5-methyl-1H-pyrazol-3-yl}-2-phenylacetamide] |
| > 1000 nM | Cc1cc(NC(=O)Cc2ccccc2)nn1Cc1cc(Cl)ccc1OCc1ccc(F)cc1Cl [Example 124, N-{1-[(5-Chloro-2-{[(2-chloro-4-fluorophenyl)methyl]oxy}phenyl)methyl]-5-methyl-1H-pyrazol-3-yl}-2-phenylacetamide] |
| > 1000 nM | Cc1cc(NC(=O)Cc2ccccc2)nn1Cc1cc(Cl)ccc1OCc1ccc(Cl)cc1Cl [Example 125, N-{1-[(5-Chloro-2-{[(2,4-dichlorophenyl)methyl]oxy}phenyl)methyl]-5-methyl-1H-pyrazol-3-yl}-2-phenylacetamide] |
| > 1000 nM | Cc1cc(NC(=O)Cc2ccccc2)nn1Cc1cc(Cl)ccc1OCc1c(F)cc(F)cc1F [Example 127, N-{1-[(5-Chloro-2-{[(2,4,6-trifluorophenyl)methyl]oxy}phenyl)methyl]-5-methyl-1H-pyrazol-3-yl}-2-phenylacetamide] |
| > 1000 nM | Cc1cc(NC(=O)Cc2ccccc2)nn1Cc1cc(Cl)ccc1OCc1ccc(F)c(F)c1 [Example 128, N-{1-[(5-Chloro-2-{[(3,4-difluorophenyl)methyl]oxy}phenyl)methyl]-5-methyl-1H-pyrazol-3-yl}-2-phenylacetamide] |
| > 1000 nM | Cc1cc(NC(=O)Cc2ccccc2)nn1Cc1cc(Cl)ccc1OCc1ccccc1Cl [Example 129, N-{1-[(5-Chloro-2-{[(2-chlorophenyl)methyl]oxy}phenyl)methyl]-5-methyl-1H-pyrazol-3-yl}-2-phenylacetamide] |
| > 1000 nM | Cc1cc(NC(=O)c2ccccn2)nn1Cc1cc(Cl)ccc1OCc1ccccc1 [Example 139, N-[1-({5-Chloro-2-[(phenylmethyl)oxy]phenyl}methyl)-5-methyl-1H-pyrazol-3-yl]-2-pyridinecarboxamide] |
| > 1000 nM | Cc1cc(NC(=O)c2ccco2)nn1Cc1cc(Cl)ccc1OCc1ccccc1 [Example 140, N-[1-({5-Chloro-2-[(phenylmethyl)oxy]phenyl}methyl)-5-methyl-1H-pyrazol-3-yl]-2-furancarboxamide] |
| > 1000 nM | Cc1cc(NC(=O)c2ccc(C#N)cc2)nn1Cc1cc(Cl)ccc1OCc1ccccc1 [Example 142, N-[1-({5-Chloro-2-[(phenylmethyl)oxy]phenyl}methyl)-5-methyl-1H-pyrazol-3-yl]-4-cyanobenzamide] |
| > 1000 nM | Cc1cc(NC(=O)c2cnccn2)nn1Cc1cc(Cl)ccc1OCc1ccccc1 [Example 144, N-[1-({5-Chloro-2-[(phenylmethyl)oxy]phenyl}methyl)-5-methyl-1H-pyrazol-3-yl]-2-pyrazinecarboxamide] |
| > 1000 nM | Cc1cc(NC(=O)c2cccnc2)nn1Cc1cc(Cl)ccc1OCc1ccccc1 [Example 145, N-[1-({5-Chloro-2-[(phenylmethyl)oxy]phenyl}methyl)-5-methyl-1H-pyrazol-3-yl]-3-pyridinecarboxamide] |
| > 1000 nM | Cc1cc(NC(=O)Cc2cccnc2)nn1Cc1cc(Cl)ccc1OCc1ccccc1 [Example 148, N-[1-({5-Chloro-2-[(phenylmethyl)oxy]phenyl}methyl)-5-methyl-1H-pyrazol-3-yl]-2-(3-pyridinyl)-acetamide] |

| Structure (SMILES) | Ki |
| --- | --- |
| Cc1cc(OC(=O)NC2CCCCC2)nn1Cc1cc(Cl)ccc1OCc1ccccc1 [Example 43, 1-({5-Chloro-2-[(phenylmethyl)oxy]phenyl}methyl)-5-methyl-1H-pyrazol-3-yl cyclohexylcarbamate] | > 1000 nM |
| Cc1cc(OC(=O)NC2CCCCC2)nn1Cc1cc(Cl)ccc1OCC(C)C [Example 51, 1-({5-Chloro-2-[(2-methylpropyl)oxy]phenyl}methyl)-5-methyl-1H-pyrazol-3-yl cyclohexylcarbamate] | > 1000 nM |
| Cc1cc(OC(=O)NCc2ccc(NC(=O)OC(C)(C)C)cc2)nn1Cc1cc(Cl)ccc1OCc1ccccc1 [Example 56, 1-({5-Chloro-2-[(phenylmethyl)oxy]phenyl}methyl)-5-methyl-1H-pyrazol-3-yl {[4-({[(1,1-dimethylethyl)oxy]carbonyl}amino)phenyl]methyl}carbamate] | > 1000 nM |
| Cc1cc(OC(=O)NCc2ccc(CNC(=O)OC(C)(C)C)cc2)nn1Cc1cc(Cl)ccc1OCc1ccccc1 [Example 59, 1-({5-Chloro-2-[(phenylmethyl)oxy]phenyl}methyl)-5-methyl-1H-pyrazol-3-yl 1,1-dimethylethyl (benzene-1,4-dildimethanediyl)biscarbamate] | > 1000 nM |
| Cc1cc(OC(=O)NCc2cccc(NC(=O)OC(C)(C)C)c2)nn1Cc1cc(Cl)ccc1OCc1ccccc1 [Example 60, 1-({5-Chloro-2-[(phenylmethyl)oxy]phenyl}methyl)-5-methyl-1H-pyrazol-3-yl {[3-({[(1,1-dimethylethyl)oxy]carbonyl}amino)phenyl]methyl}carbamate] | > 1000 nM |
| Cc1cc(OC(=O)NCc2cccc(CNC(=O)OC(C)(C)C)c2)nn1Cc1cc(Cl)ccc1OCc1ccccc1 [Example 61, 1-({5-Chloro-2-[(phenylmethyl)oxy]phenyl}methyl)-5-methyl-1H-pyrazol-3-yl 1,1-dimethylethyl (benzene-1,3-diyldimethanediyl)biscarbamate] | > 1000 nM |
